According to US20110251219A1, “TREATMENT FOR GLOMERULONEPHRITIS WITH 2-[4-(7-ETHYL-5H-PYRROLO[2,3-B]PYRAZIN-6-YL)PHENYL]PROPAN-2-OL” (SANOFI, priority 2008, published 2011):
Where “and” joins values, the source holds several entries; their conditions need not be identical. Equal values may be shown once.

Experiments:
Syk kinase = Syk kinase (Homo sapiens, UniProt P43405); conditions: as described in WO2008/033798; cited from earlier work
[1] = tested on: glomerulonephritis induced by a 30 microgram intravenous injection of clone a84 (IgG2a); assay: a84 antibody-induced glomerulonephritis animal model, urinary protein levels; format: in vivo, Rat, WKY; conditions: for % Inhibition of Total Urinary Protein Levels (mg), individual animal / % Inhibition of Total Urinary Protein Levels (mg), Mean: 30 ug a84 antibody iv; for % Inhibition of Total Urinary Protein Levels (mg), Mean: urine day 6-7 (16 h), male WKY rats, group mean
Text: Study Objective: Glomerulonephritis is a complex disease involving cytokines, cell infiltration, cell proliferation, and rapid deterioration of renal function. This animal model will provide a relatively short term and quantitative measurement of glomerulonephritis. This study was designed to determine if a compound of Formula I will reduce glomerulonephritis induced by a 30 microgram intravenous injection of clone a84 (IgG2a). This monoclonal antibody induces disease by binding to a glomerular basement membrane protein. Disease progression is monitored in two ways in this model. First, the levels of protein in excreted urine are assessed. This readout serves as a rapid marker of renal diseased. The second mechanism by which disease is monitored is by examining the substructure of the kidney via histological examination.
Aim of Study: Glomerulonephritis is a complex disease involving cytokines, cell infiltration, cell proliferation, and rapid deterioration of renal function. This animal model provided a relatively short term and quantitative measurement of glomerulonephritis. This study was designed to determine if the compound of Formula I as hydrochloride salt will reduce glomerulonephritis induced by a 30 microgram intravenous injection of clone a84 (IgG2a).
Species, Strain, Supplier: Rat, WKY, Charles River
Duration and Frequency of Treatment: Animals in groups B through F and H through L received a 30 ug iv injection of a84 antibody on day 0 approximately 1 hour post dose.
Route of Administration: Oral gavage
Duration and Frequency of Treatment: Each animal in groups C, D, and E received an A.M. and P.M. dose approximately 8 hours apart from day 0 through day 6. Each animal in groups I, J, and K received an A.M. and P.M. dose approximately 8 hours apart from day 0 through day 3. Dosing was initiated on day 0 approximately 1 hour prior to a84 antibody injection.
Route of Administration: intraperitoneal (ip)
Duration and Frequency of Treatment: Each animal in groups F and L received an A.M. dose on day 0 approximately 1 hour prior to a84 antibody injection and a PM dose on day 3.
Kit: Rat Urinary Protein Assay Kit
Study Parameters Rat urinary proteins was measured over approximately a 16 hour period from day 6 to day 7. The kidneys were harvested for histological evaluation and for possible mRNA isolation.
Evaluation Method: Rat urinary protein levels was determined by the kit described in section 2.3.
Chronology of Examinations and/or Sampling: 1) Rats were placed into six groups of eight, six groups of 4, and one group of 3 based on compound and dose administered: Group A Vehicle (0.5% methyl cellulose containing 0.2% tween 80)+IV saline injection n=8, Group B Vehicle (0.5% methyl cellulose containing 0.2% tween 80)+IV a84 antibody injection n=8, Group C Compound of Formula I as hydrochloride salt 3.0 mg/kg+IV a84 antibody injection n=8, Group D SAR397769A 10 mg/kg+IV a84 antibody injection n=8, Group E Compound of Formula I as hydrochloride salt 30 mg/kg+IV a84 antibody injection n=8, Group F Enbrel 5.0 mg/kg+IV a84 antibody injection, Group G Vehicle (0.5% methyl cellulose containing 0.2% tween 80)+IV saline injection n=4, Group H Vehicle (0.5% methyl cellulose containing 0.2% tween 80)+IV a84 antibody injection n=4, Group I Compound of Formula I as hydrochloride salt 3.0 mg/kg+IV a84 antibody injection n=4, Group J SAR397769A 10 mg/kg+IV a84 antibody injection n=4, Group K Compound of Formula I as hydrochloride salt 30 mg/kg+IV a84 antibody injection n=4, Group L Enbrel 5.0 mg/kg+IV a84 antibody injection n=4, and Group M Naïve n=3. 2) On day 0, rats were dosed one hour prior to a84 antibody injection. Animals in groups A through E, and G through K were dosed orally. Dosing continued twice daily in groups A through E from day 0 to day 6 with approximately 8 hours between doses. Dosing continued twice daily in groups G through K from day 0 to day 3 with approximately 8 hours between doses. […]

Compound: CCc1c(-c2ccc(C(C)(C)O)cc2)[nH]c2nccnc12 [Exp Cmpd, 2-[4-(7-Ethyl-5H-pyrrolo [2,3-b]pyrazin-6-yl)-phenyl]-propan-2-ol]
- Syk kinase inhibition (Syk kinase): Syk kinase inhibitor
- % Inhibition of Total Urinary Protein Levels (mg), individual animal ([1]; 3.0 mg/kg oral gavage twice daily day 0-6, single animals 1-8): −0.60% and 9.50% and −5.97% and 54.11% and 43.80% and 42.33% and 65.58% and −3.63%
- % Inhibition of Total Urinary Protein Levels (mg), Mean ([1]; 3.0 mg/kg oral gavage twice daily day 0-6): 25.64%
- % Inhibition of Total Urinary Protein Levels (mg), Mean ([1]; 3.0 mg/kg oral gavage twice daily day 0-6, listed as compound of Formula I): 25%
- % Inhibition of Total Urinary Protein Levels (mg), individual animal ([1]; 10 mg/kg oral gavage twice daily day 0-6, single animals 1-8): 46.17% and 64.93% and 71.77% and 76.96% and 81.22% and 43.56% and 35.61% and 11.63%
- % Inhibition of Total Urinary Protein Levels (mg), Mean ([1]; 10 mg/kg oral gavage twice daily day 0-6): 53.98%
- % Inhibition of Total Urinary Protein Levels (mg), Mean ([1]; 10 mg/kg oral gavage twice daily day 0-6, listed as compound of Formula I): 53%
- % Inhibition of Total Urinary Protein Levels (mg), individual animal ([1]; 30 mg/kg oral gavage twice daily day 0-6, single animals 1-8): 84.66% and 85.65% and 79.73% and 86.92% and 88.28% and 84.82% and 81.26% and 92.32%
- % Inhibition of Total Urinary Protein Levels (mg), Mean ([1]; 30 mg/kg oral gavage twice daily day 0-6): 85.46%
- % Inhibition of Total Urinary Protein Levels (mg), Mean ([1]; 30 mg/kg oral gavage twice daily day 0-6, listed as compound of Formula I): 85%
- reduction of urinary protein levels compared with positive control (Enbrel) ([1]; 30 mg/kg versus Enbrel 5.0 mg/kg): significantly better than the positive control

Compound: Enbrel [reference compound]
- % Inhibition of Total Urinary Protein Levels (mg), individual animal ([1]; 5.0 mg/kg ip on day 0 and day 3, single animals 1-7): 50.26% and 33.67% and 61.10% and 46.54% and 58.91% and 63.92% and 22.67%
- % Inhibition of Total Urinary Protein Levels (mg), Mean ([1]; 5.0 mg/kg ip on day 0 and day 3): 48.15%
